Assays:
[1] = test system: A549 cells (homozygous KRAS p.G12S mutation); assay: Immunoblot and Raf-RBD pulldown in A549 cells; format: cell-based; conditions: 10 μM, 2 h
Description: Cells were passed for at least two generations after cryorecovery before they were used for assays. All cell lines were tested mycoplasma negative using MycoAlert™ Mycoplasma Detection Kit (Lonza). When indicated, cells were treated with drugs at 40-60% confluency at a final DMSO concentration of 1%. At the end of treatment period, cells were placed on ice. Unless otherwise indicated, adherent cells were washed once with ice-cold PBS (1 mL), scraped with a spatula, and pelleted by centrifugation (500×g, 5 min). Suspension cells were pelleted by centrifugation (500×g, 5 min), washed with 1 mL ice-cold PBS, and pelleted again. Cells were lysed in RIPA buffer supplemented with protease and phosphatase inhibitors (cOmplete and phosSTOP, Roche) on ice for 10 min. For RBD pulldown experiments, cells were lysed in Co-IP Lysis Buffer in lieu of RIPA buffer. Lysates were clarified by high-speed centrifugation (19,000×g, 10 min). Concentrations of lysates were determined with protein BCA assay (Thermo Fisher) and adjusted to 2 mg/mL with additional RIPA buffer (or Co-IP Lysis Buffer). Samples were mixed with 5×SDS Loading Dye and heated at 95° C. for 5 min.
Ras·GTP pulldown was performed with GST-RBD agarose beads (Cytoskeleton, 10 μL, 30 μg loaded GST-RBD). 50 μL lysate (2 mg/mL) was mixed with 10 μL beads, and the suspension was incubated at 4° C. for 1 h with constant end-to-end rotation. The beads were settled by centrifugation (500×g, 5 min) and the supernatant was carefully removed. The beads were washed with 2×500 μL ice-cold Co-IP wash buffer. Bound protein was eluted with 10 μL 2×SDS Loading Buffer.
Membranes were blocked in 5% BSA-TBST for 1 h at 23° C. […] After washing the membrane three times with TBST (5 min each wash), secondary antibodies (goat anti-rabbit IgG-IRDye 800 and goat anti-mouse IgG-IRDye 680, Li-COR) were added as solutions in 5% skim milk-TBST at the dilutions recommended by the manufacturer. Secondary antibody binding was allowed to proceed for 1 h at 23° C. The membrane was washed three times with TBST (5 min each wash) and imaged on a Li-COR Odyssey fluorescence imager.

K-Ras(G12S) = K-Ras(G12S) (Homo sapiens, UniProt P01116, G12S); assay: Covalent modification of recombinant K-Ras(G12S) by whole-protein mass spectrometry; format: binding; parameters: human K-Ras (G12S, aa 1-169); 6xHis tag + TEV cleavage site (N, cleaved yes); made in house; host or cells: E. coli BL21(DE3); conditions: 23° C.; for covalent reaction with K-Ras(G12S)·GDP: 10 μM compound; for % covalent modification of K-Ras G12S: 24-h incubation, 100 μM compound, pH 7.5
Description: (§1) Test compounds were prepared as 100× stock solutions in DMSO. K-Ras proteins were diluted with SEC Buffer (20 mM HEPES 7.5, 150 mM NaCl, 1 mM MgCl2) to 400 nM or 1 μM. In a typical reaction, 0.5 μL 100× compound stock was mixed with 50 μL diluted K-Ras protein, and the resulting mixture was incubated for the desired amount of time. The extent of modification was assessed by electrospray mass spectrometry using a Waters Xevo G2-XS system equipped with an Acquity UPLC BEH C4 1.7 μm column. […] For kinetic measurements, a 2× compound solution was first prepared in SEC Buffer, which was then mixed with 400 nM K-Ras(G12S) protein at 1:1 (v/v) ratio. Injection time stamps were used to calculate elapsed time.
as §1, with “K-Ras(G12D)” for “K-Ras(G12S)”

wild type K-Ras [2] = target: T1, wild type K-Ras (Homo sapiens, UniProt P01116); assay: Covalent modification of recombinant wild-type K-Ras by whole-protein mass spectrometry; format: binding; conditions: 24-h incubation, 100 μM compound, 23° C., pH 7.5
T1 construct: human K-Ras (wildtype, aa 1-169); 6xHis tag + TEV cleavage site (N, cleaved yes); made in house; host or cells: E. coli BL21(DE3)
Description: (§2) Test compounds were prepared as 100× stock solutions in DMSO. K-Ras proteins were diluted with SEC Buffer (20 mM HEPES 7.5, 150 mM NaCl, 1 mM MgCl2) to 400 nM or 1 μM. In a typical reaction, 0.5 μL 100× compound stock was mixed with 50 μL diluted K-Ras protein, and the resulting mixture was incubated for the desired amount of time. The extent of modification was assessed by electrospray mass spectrometry using a Waters Xevo G2-XS system equipped with an Acquity UPLC BEH C4 1.7 μm column. The mobile phase was a linear gradient of 5-95% acetonitrile/water+0.05% formic acid. For kinetic measurements, a 2× compound solution was first prepared in SEC Buffer, which was then mixed with 400 nM K-Ras(G12S) protein at 1:1 (v/v) ratio. Injection time stamps were used to calculate elapsed time.
as §2, with “K-Ras(G12D)” for “K-Ras(G12S)”

wild type K-Ras [3] = target: T1, wild type K-Ras; assay: Covalent modification of test protein after incubation with compound; format: binding; conditions: 24-h incubation with 100 μM compound at 23° C. at pH 7.5
K-Ras G12D [4] = target: T2, K-Ras G12D (Homo sapiens, UniProt P01116, G12D); assay: as above; format: binding; conditions: 24-h incubation with 100 μM compound at 23° C. at pH 7.5
T2 construct: human K-Ras (G12D, aa 1-169); 6xHis tag + TEV cleavage site (N, cleaved yes); made in house; host or cells: E. coli BL21(DE3)

K-Ras G12E = target: T3, K-Ras G12E (Homo sapiens, UniProt P01116, G12E); assay: as above; format: binding; conditions: 24-h incubation with 100 μM compound at 23° C. at pH 7.5
T3 construct: human K-Ras (G12E, aa 1-169); 6xHis tag + TEV cleavage site (N, cleaved yes); made in house; host or cells: E. coli BL21(DE3)

K-Ras G12D [5] = target: T2, K-Ras G12D; assay: Covalent modification of recombinant K-Ras(G12D) by whole-protein mass spectrometry; format: binding
Description: as §2, with “K-Ras(G12D)” for “K-Ras(G12S)”

BaF3/K-Ras(G12D) cells = assay: Growth inhibition of BaF3/K-Ras(G12D) cells; format: cell-based, murine; conditions: Mus musculus, 95% CI: 3.1-6.3 μM, read-out: IC50, BaF3/K-Ras(G12D) proliferation
Description: Cells were seeded into 96-well white flat bottom plates (1,000 cells/well) (Corning) and incubated overnight. Cells were treated with the indicated compounds in a nine-point threefold dilution series (100 μL final volume) and incubated for 72 h. Cell viability was assessed using a commercial CellTiter-Glo (CTG) luminescence-based assay (Promega). Briefly, the 96-well plates were equilibrated to room temperature before the addition of diluted CTG reagent […] (1:4 CTG reagent:PBS). Plates were placed on an orbital shaker for 30 min before recording luminescence using a Spark 20M (Tecan) plate reader.

[6] = Stability of substituted β-lactones in PBS 7.4 at 23° C.; format: physicochemical; conditions: PBS, pH 7.4, read-out: half-life (hydrolysis) (converted)
K-Ras G12D [7] = target: T2, K-Ras G12D; assay: Differential scanning fluorimetry of K-Ras(G12D) and its covalent adducts; format: binding
Description: The protein of interest was diluted with SEC Buffer [20 mM HEPES 7.5, 150 mM NaCl, 1 mM MgCl2] to 8 μM. This solution was dispensed into wells of a white 96-well PCR plate in triplicate (25 μL/well). Fluorescence was measured at 0.5-° C. temperature intervals every 30 s from 25° C. to 95° C. on a Bio-Rad CFX96 qPCR system using the FRET setting. Each data set was normalized to the highest fluorescence and the normalized fluorescence reading was plotted against temperature in GraphPad Prism 8.0. Tm values were determined as the temperature(s) corresponding to the maximum(ma) of the first derivative of the curve.

SMILES	effects on phospho-Akt, phospho-Erk and Ras·GTP levels [1]	covalent reaction with K-Ras(G12S)·GDP (K-Ras(G12S))	% covalent modification of wild type K-Ras (wild type K-Ras [2]) [%]	% covalent modification of wild type K-Ras (wild type K-Ras [3]) [%]	% covalent modification of K-Ras G12D (K-Ras G12D [4]) [%]	% covalent modification of K-Ras G12E (K-Ras G12E) [%]	% covalent modification of K-Ras G12S (K-Ras(G12S)) [%]	reactivity with K-Ras(G12D)·GDP (K-Ras G12D [5])	IC50 (BaF3/K-Ras(G12D) cells) [µM]	half-life [6] [h]	thermal stabilization of K-Ras(G12D)·GDP (K-Ras G12D [7]; GDP state)	thermal stabilization of K-Ras(G12D)·GppNHp (K-Ras G12D [7]; GppNHp state)
CN1CCC[C@H]1COc1nc2c(c(N3CC[C@H]4C(=O)O[C@H]4C3)n1)CCN(c1cccc3cccc(Cl)c13)C2 [3′]	neither adagrasib nor 3′ had any observable effects on these markers	enhanced reaction	–	–	–	–	–	–	–	–	–	–
O=C1O[C@H]2CN(c3nc(OCC45CCCN4CCC5)nc4c3CCN(c3cccc5cccc(Cl)c35)C4)CC[C@@H]12 [4′]	decreased the level of Ras·GTP	enhanced reaction	0	0	0	0	100	–	–	–	–	–
CC(C)[C@H]1C(=O)O[C@@H]1C(=O)N1[C@@H]2CC[C@H]1CN(c1nc(OCC34CCCN3CCC4)nc3c(F)c(-c4cccc5cccc(Cl)c45)ncc13)C2 [(2S, 3R)-4]	–	–	–	–	–	–	–	did not show any detectable reactivity	4.4	–	–	–
O=C1C[C@H](C(=O)N2[C@@H]3CC[C@H]2CN(c2nc(OCC45CCCN4CCC5)nc4c(F)c(-c5cccc6cccc(Cl)c56)ncc24)C3)O1 [Compound 2]	–	–	–	–	–	–	–	the R enantiomer was more reactive toward K-Ras(G12D)·GDP	–	1.7	–	–
C[C@@H]1C(=O)O[C@H]1C(=O)N1[C@@H]2CC[C@H]1CN(c1nc(OCC34CCCN3CCC4)nc3c(F)c(-c4cccc5cccc(Cl)c45)ncc13)C2 [Compound 3]	–	–	–	–	–	–	–	–	–	2.5	–	–
CN1CCC[C@@H]1COc1nc2c(c(N3CCC4(CC3)CN(S(=O)(=O)O)C4=O)n1)CCN(c1cccc3cccc(Cl)c13)C2 [Compound 12-087]	–	–	0	0	0	0	0	–	–	–	–	–
CN1CCC[C@@H]1COc1nc2c(c(N3CCC4(CC3)COC4=O)n1)CCN(c1cccc3cccc(Cl)c13)C2 [Compound 13-005]	–	–	73.7	73.7	75.7	72.6	72.1	–	–	–	–	–
CN1CCC[C@@H]1COc1nc2c(c(N3CCC4(CC3)CC(=O)O4)n1)CCN(c1cccc3cccc(Cl)c13)C2 [Compound 13-006]	–	–	0	0	0	0	0	–	–	–	–	–
O=C1OCC12CCN(c1nc(OCC34CCCN3CCC4)nc3c1CCN(c1cccc4cccc(Cl)c14)C3)CC2 [Compound 13-018]	–	–	85.8	85.8	87.8	75.1	92.8	–	–	–	–	–
O=C1OCC12CCN(c1nc(OCC34CCCN3CCC4)nc3c(F)c(-c4cccc5cccc(Cl)c45)ncc13)CC2 [Compound 13-037]	–	–	0	0	0	0	42.5	–	–	–	–	–
N#CC[C@H]1CN(c2nc(OCC34CCCN3CCC4)nc3c(F)c(-c4cccc5cccc(Cl)c45)ncc23)CCN1C(=O)C1CC(=O)O1 (stereo partly drawn) [Compound 14-005]	–	–	0	0	100	38.0	100	–	–	–	stabilized K-Ras(G12D)·GDP	stabilized K-Ras(G12D)·GppNHp
O=C1CC(C(=O)N2[C@@H]3CC[C@H]2CN(c2nc(OCC45CCCN4CCC5)nc4c(F)c(-c5cccc6cccc(Cl)c56)ncc24)C3)O1 (stereo partly drawn) [Compound 14-036]	–	–	22.0	22.0	100	42.0	42.0	–	–	–	–	–

— patent US20250059187A1, “COVALENTLY BINDING INHIBITORS OF G12S, G12D AND/OR G12E MUTANTS OF K-RAS GTPASE” (The Regents of the University of California, priority 2021, published 2025)
